In patent US20220218725A1, “METHODS AND MATERIALS FOR TREATING CANCER” (Mayo Foundation for Medical Education and Research, priority 2019, published 2022):
Like-named read-outs stand apart in the source and are kept apart here.

Assays:
[1] = system: DHL6 cells; assay: Cell viability, Annexin V/PI assay; settings: DHL6 (DLBCL); 48 hours; KPT-330 0.1-1.0 μM, CS 1-3 mM, single agent or combination
Protocol: Cell lines were purchased from the cell line repositories ATCC (Manassas, Va.) or DSMZ (Braunschweig, Germany). These included MCL cell lines: JeKo-1, Mino; TCL cell lines: Karpas-299, SR-786; DLBCL cell lines: OCI-Ly1 (LY-1), OCI-Ly3 (LY-3), OCI-Ly19 (LY-19), SU-DHL-6 (DHL-6); MM cell lines: RPMI, U266, OPM2, Xgl, KMS2; ALL cell lines: CRL-1783; non-small cell lung cancer: NCI-H460, A549, HCC827; small cell lung cancer: H1048; sarcoma: Fuji, SW872. Cell lines were cultured according to instruction.
KPT-330 purchased from Selleckchem (cat no: S7252) was dissolved in DMSO while CS (Santa Cruz, Calif.S 2016-36-6), sodium salicylate (Sigma-Aldrich, cat no: S3007), acetyl salicylate (Sigma-Aldrich, cat no: CAS 50-78-2) was diluted in PBS. Ketorolac (Sigma-Aldrich, cat no: 1356665), Bortezomib (Selleckchem, cat no: S1013), gemcitabine (Sigma-Aldrich, cat no: G6423), Leptomycin-B (Sigma-Aldrich, cat no: L2913-2X) and KPT-185 (Selleckchem, cat no: S7125) were dissolved in DMSO. The concentration range of KPT-330 was 0.05-1.0 μM while CS was 1-3 mM were used for ex vivo treatment and incubation time ranged from 24 hours to 72 hours. For the PARP inhibitor assay, olaparib 10 μM (SelleckChem, cat no: AZD2281 Ku-0059436) was used.
The viability assessment for cell lines and primary patients samples were conducted with the Annexin V/PI method.

[2] = system: JeKo-1 cells; assay: Cell cycle analysis (PI staining, flow cytometry); format: cell-based; settings: unsynchronized JeKo-1 cells
Protocol: For cell cycle analysis, Jeko-1 cell line was intubated with CRM 1 inhibitors (concentrations ranging from 0.1-0.5p M) and salicylates (concentration at 3 mM) and Ly-1 cell line was intubated with CRM 1 inhibitors (concentrations ranging from 0.1-2.0 μM) and salicylates (concentration at 0.5-5 mM) for 24 and 48 hours and then fixed with 95% cold ethanol and kept at 4 C° for 24 h and subsequently underwent cell cycle analysis after PI staining and analysis was performed using BD FACS caliber flow cytometer (BD Biosciences) and FlowJo software (Tree Star).
Cell Cycle Analysis Following incubation, cells were fixed with 70% cold ethanol and kept at 4 C° for 24 hours, followed by PI staining. Cell cycle analysis was done by using a BD FACS Caliber flow cytometer (BD Biosciences) and analyzed using FlowJo® Software.
A double thymine block was used to synchronize cells at G1 phase of the cell cycle. JeKo-1 cells were cultured in thymidine at 2 mM in RPMI for 9 hours. Subsequently, cells were washed and cultured in RPMI media (RPMI) without additional thymidine for 12 hours and the second block of cell cycle with thymidine (2 mM) was carried out for an additional 9 hours with in RPMI. Following the double thymidine block, cells were released by re-culturing cells in normal RPMI without additional thymidine. The viability of cells at the time of release was >90%. […]

[3] = system: Nonmalignant splenic MNC; assay: Viability of nonmalignant cells, Annexin V/PI assay; format: cell-based, human; settings: 48 h, KPT-330 0.05-0.5 μM, CS 1-3 mM
Description: (§1) Primary patient samples were obtained. The mononuclear cells were obtained from bone marrow, spleen, peripheral blood and lymph nodes as follows. Freshly obtained tissue (lymph node, spleen, bone marrow) was placed in mesh screen and using a syringe plunger, the tissue was pressed into a petri dish. Samples were then rinsed through the screen using measured amounts of RPMI until all tissue has been pressed through. […] Subsequently the mononuclear cells were isolated via centrifugation in the presence of ficoll and this step was again repeated following washing the cells with RPMI media.
(§2) To isolate peripheral blood mononuclear cells (PBMCs), freshly obtained patient blood sample of patients were centrifuged in the present of ficoll and this step was repeated twice following washing the cells with PBS. Following isolating the mononuclear cells, the viability was assessed and ascertained proper viability above 80% prior to conduct respective experiments. Non-malignant cells were confirmed not to have a malignant condition by pathology review of the tissue.

[4] = system: Nonmalignant BM MNC; assay: as above; format: cell-based, human; settings: 48 h, KPT-330 0.05-0.5 μM, CS 1-3 mM
Description: as §1, §2

[5] = system: Nonmalignant PBMC; assay: as above; format: cell-based, human; settings: 48 h, KPT-330 0.05-0.5 μM, CS 1-3 mM
Description: as §1, §2

[6] = system: U2OS cells transfected with nuclear export reporter construct (NLS-GFP-NES); assay: Nuclear export efficiency assay (NLS-GFP-NES reporter); format: cell-based; settings: 24 hours, KPT-330 at 0.5 μM, 100 reporter-expressing cells scored
Description: A GFP reporter construct was made using the backbone of pEGFP-N1 vector. Specifically, the green fluorescence (GFP) was in-frame tagged with 3 consecutive copies of nuclear localization sequence (NLS) of SV40 large T antigen to the N-terminus and 3 consecutive copies of nuclear export sequences (NES) of HIV Rev to the C-terminus. The resulting construct encodes NLS-GFP-NES fusion protein capable of shuttling freely between the nucleus and the cytoplasm. The construct DNA was transfection into U2OS cells using Lipofectamine 2000 reagent (Life Technologies) according to product instruction. Six hours post transfection, the cells were treated with vehicle, CS, KPT-330, and K+CS for 24 hours. Finally, the treated cells were fixed with 4% PFA, and permeabilized, and stained for endogenous expression of CRM1 protein with anti-CRM1 antibody (Cell Signaling, Danvers, Mass.; catalog number: 46249, dilution 1:1500). Cell images were collected on a Zeiss LSM 780 confocal microscope.

[7] = Viability of nonmalignant cells, Annexin V/PI assay; format: cell-based, human; settings: human, KPT-330 0.05-0.5 μM, CS 1-3 mM, read-out: % viability normalized for respective controls
Description: as §1, §2

Row | Compound | % viability normalized for respective controls [1] [%] | fraction of cells in the G2/M phase [2] [%] | % viability normalized for respective controls ([3]; Splenic MNC (sample of r39)) [%] | % viability normalized for respective controls ([3]; Splenic MNC (sample of r40)) [%] | % viability normalized for respective controls ([3]; Splenic MNC (sample of r41)) [%] | % viability normalized for respective controls ([3]; Splenic MNC (sample of r42)) [%] | % viability normalized for respective controls [4] [%] | % viability normalized for respective controls [5] [%] | cells with complete nuclear localization of GFP [6] [%] | viability at 48 h ([7]; nonmalignant bone marrow mononuclear cells, BM MNC) [%] | viability at 48 h ([7]; nonmalignant peripheral blood mononuclear cells (PBMC)) [%] | viability at 48 h ([7]; nonmalignant splenic mononuclear cells, Splenic MNC (sample of r39)) [%] | viability at 48 h ([7]; nonmalignant splenic mononuclear cells, Splenic MNC (sample of r40)) [%] | viability at 48 h ([7]; nonmalignant splenic mononuclear cells, Splenic MNC (sample of r41)) [%] | viability at 48 h ([7]; nonmalignant splenic mononuclear cells, Splenic MNC (sample of r42)) [%]
1 | C[N+](C)(C)CCO.O=C([O-])c1ccccc1O [CS, choline salicylate] | 101 | 11 | 82 | 64 | 76 | 76 | 82 | 78 | – | – | – | – | – | – | –
2 | O=C(/C=C\n1cnc(-c2cc(C(F)(F)F)cc(C(F)(F)F)c2)n1)NNc1cnccn1 [KPT-330, (Z)-3-[3-[3,5-bis (trifluoromethyl)phenyl]-1,2,4-triazol-1-yl]-N′-pyrazin-2-ylprop-2-enehydrazide] | – | 15 | – | – | – | – | – | – | 28 | 78 | 86 | 84 | 66 | 59 | 58
